Measurements reported in US6646003B2, “Method of treating ocular inflammatory and angiogenesis-related disorders of the posterior segment of the eye using an amide derivative of flurbiprofen or ketorolac” (Alcon, Inc., priority 2001, dated 2003).

How the values were obtained:
[1] = system: paracentesis-induced breakdown of the BAB; assay: inhibition of trauma-induced ocular inflammation (rabbit model of paracentesis); assay type: in vivo; details: for inhibition of paracentesis-induced breakdown of the BAB: single 50 μL topical ocular drop of 0.1% solution/suspension 45 minutes prior to paracentesis, rabbit; for topical ocular in vivo antiinflammatory activity (result in words): 0.1% topical ocular dose, rabbit paracentesis model
Method: Effects of a single prophylactic topical ocular dose of the tested compounds were examined in a rabbit model of paracentesis (Graff, et al., Ocular Immunol. Inflamm., 6:227-238 (1998)). Briefly, a single 50 μL drop of a 0.1% drug solution/suspension was administered topically onto the eye 45 minutes prior to paracentesis and removal of ˜150 μL of aqueous humor. Thirty minutes after execution of paracentesis aqueous humor was removed (˜100 μL) for analysis. Both pre- and post-paracentesis samples were assayed for protein and PGE2 content.

[2] = in vitro metabolism: hydrolytic conversion of NSAID amides to free carboxylic acids; assay type: in vitro ADME, NZA rabbit; details: rabbit iris/ciliary body, 36° C.; for rate of drug hydrolysis by the ICB: GBR buffer pH 7.6, four to six hours; for hydrolytic bioactivation by the ICB (result in words): GBR buffer pH 7.6
Method: Freshly dissected iris/ciliary body from the NZA rabbit was incubated at 36° C. for a period of four to six hours in 0.5 ml of GBR buffer (pH 7.6) supplemented with amide derivatives of the indicated NSAIDs. Samples of 0.1 ml were removed for HPLC analysis to monitor the hydrolytic conversion of NSAID amides to free carboxylic acids.

[3] = in vitro corneal drug permeation (perfusion chamber, HPLC); assay type: in vitro ADME, NZA rabbits; details: continued drug perfusion of the corneal epithelium, excised rabbit cornea, GBR buffer
Method: Freshly excised corneas were obtained from 6-week old NZA rabbits (1.3-1.5 kg). Corneas were mounted in a modified Lucite perfusion chamber and perfused with glutathione-supplemented bicarbonated Ringer (GBR) buffer as previously described^1. Drug concentrations in GBR buffer were as indicated (FIG. 1), with the corneal epithelial cell layer facing the drug containing donor compartment. The final volume of the donor and receiver side of the perfusion chamber was 7.0 mL. Samples of 0.1 mL were withdrawn from both chambers at the beginning of the experiment and at 20 to 30 minute intervals thereafter through six hours. Samples were mixed with an equal volume of methanol and immediately subjected to HPLC analysis. HPLC analysis was carried out on a 25 cm×4.6 mm I.D. Spherosorb RP-18, 10μ column at a flow rate of 2.0 ml/min. The column effluent was monitored with a flow monitor at a wavelength of 230 nm. Elution of NSAID free acids and amides was accomplished with an eluant mixture composed of methanol:water:phosphoric acid (60/40/1 (v/v/v)) (pH 3.0). The eluant mixture was changed to methanol:water:phosphoric acid (60/40/1 (v/v/v)) (pH 3.0) when suprofen and suprofen amide were subjected to HPLC analysis.

| Structure (SMILES) | rate of drug hydrolysis by the ICB [2] | hydrolytic bioactivation by the ICB (result in words) [2] | inhibition of paracentesis-induced breakdown of the BAB [1] | also measured |
| --- | --- | --- | --- | --- |
| CC(C(=O)O)c1ccc(-c2ccccc2)c(F)c1 (stereo not drawn) [flurbiprofen] |  |  | 50% |  |
| NC(=O)Cc1cccc(C(=O)c2ccc(Br)cc2)c1N [amide derivative of bromfenac] | 0.17 nM/min/mg tissue |  |  |  |
| CNC(=O)Cc1cccc(C(=O)c2ccc(Br)cc2)c1N [monomethyl amide derivative of bromfenac, N-methyl 2-amino-3-(4-bromobenzoyl)benzeneacetamide] | 0.16 nM/min/mg tissue |  |  |  |
| NC(=O)Cc1ccccc1Nc1c(Cl)cccc1Cl [amide derivative of diclofenac] |  | resistant to hydrolytic bioactivation |  | topical ocular in vivo antiinflammatory activity (result in words) [1]: no antiinflammatory effects were detectable; permeation coefficient [3]: 7.8 cm/min^−1×10^−5 |
| CN(C)C(=O)Cc1cccc(C(=O)c2ccc(Br)cc2)c1N [dimethyl amide derivative of bromfenac, N,N-dimethyl 2-amino-3-(4-bromobenzoyl)benzeneacetamide] |  | resistant to hydrolytic bioactivation |  | topical ocular in vivo antiinflammatory activity (result in words) [1]: no antiinflammatory effects were detectable |
| CC(C(N)=O)c1ccc(-c2ccccc2)c(F)c1 (stereo not drawn) [amide derivative of flurbiprofen, 2-(3-fluoro-4-phenyl)-propionamide] | 0.29 nM/min/mg tissue |  | 29% |  |

Now from value to compound, other results behind:

| rate of drug hydrolysis by the ICB [2] | hydrolytic bioactivation by the ICB (result in words) [2] | Structure (SMILES) | inhibition of paracentesis-induced breakdown of the BAB [1] | also measured |
| --- | --- | --- | --- | --- |
| 2.42 nM/min/mg tissue |  | NC(=O)C1CCn2c(C(=O)c3ccccc3)ccc21 (stereo not drawn) [amide derivative of ketorolac, 5-benzoyl-2,3-dihydro-1H-pyrrolizine-1-carboxamide] |  |  |
|  | resistant to hydrolytic bioactivation | CC(C(N)=O)c1ccc(C(=O)c2cccs2)cc1 (stereo not drawn) [amide derivative of suprofen, α-methyl-4-(2-thienylcarbonyl)-benzeneacetamide] |  |  |
| 0.69 nM/min/mg tissue |  | NC(=O)Cc1cccc(C(=O)c2ccccc2)c1N [amide derivative of amfenac] | 64% | permeation coefficient [3]: 7.4 cm/min^−1×10^−5 |
